Where “and” joins values, the source holds several entries; their conditions need not be identical. Equal values may be shown once. Read-outs that look alike come from different tables or passages of the source.
System: Influenza A/Duck/MN/1525/81 (H5N1) virus
Set-up: species or system BALB/c mice
Conditions: mouse, in vivo

Row | Compound | mice survived to day 21 | survival rate | mean day of death (MDD) (sodium salt) | mean day of death (MDD)
1 | CC#CCC(C)[C@H](O)/C=C/[C@@H]1[C@H]2c3cccc(CCCC(=O)[O-])c3O[C@H]2C[C@H]1O.[Na+] (mixture of isomers) [beraprost, (+)-[1R,2R,3aS,8bS]-2,3,3a,8b-tetrahydro-2-hydroxyl-1-[(E)-(3S,4RS)-3-hydroxyl-4-methyl-1-octen-6-ynyl)-1H-cyclopenta[b]benzofuran-5-butanoic acid, sodium salt] | 6 of 10 | 50% | 9.0 ± 3.9 days and 8.0 ± 2.0 days | –
2 | CCOC(=O)C1=C[C@@H](OC(CC)CC)[C@H](NC(C)=O)[C@@H](N)C1 [oseltamivir] | 8 out of 10 | 70% | – | 9.0 ± 0.0 days and 11.4 ± 1.8 days

— patent US20150196578A1, “COMBINATION THERAPY TREATMENT FOR VIRAL INFECTIONS” (priority 2009, published 2015)
